Measured values published in ChEMBL document CHEMBL1201862, “PubChem BioAssay data set” (2004).
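Five concentrations, 48 hours, 96-well plates. Abbreviation: GI50, concentration required for 50% inhibition of growth.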 Activity calls are given as the source filed them. Cut-off read from the data, not from the text of the source: active = GI50 up to about 1.1 µM and inactive = higher.

Tests used:
Assay in all cases: DTP human tumour cell line panel, 48 h
786-0 = test system: 786-0
CCRF-CEM = test system: CCRF-CEM
Malme-3M = test system: Malme-3M
MDA-N = test system: MDA-N
RXF 393 = test system: RXF 393
UACC-62 = test system: UACC-62
T47D = test system: T47D
OVCAR-4 = test system: OVCAR-4
HT-29 = test system: HT-29
NCI-H226 = test system: NCI-H226
RPMI-8226 = test system: RPMI-8226
SNB-19 = test system: SNB-19
CAKI-1 = test system: CAKI-1
MDA-MB-435 = test system: MDA-MB-435
SR = test system: SR
HL-60 = test system: HL-60
SF-268 = test system: SF-268
TK-10 = test system: TK-10
K562 = test system: K562
NCI-H460 = test system: NCI-H460

## CSC1=N/C(=C\c2ccc(C)cc2)C(=O)N1
786-0
  GI50: 45.8 µM (inactive)
CCRF-CEM
  GI50: 92.5 µM (inactive)
Malme-3M
  GI50: > 100 µM (inactive)
MDA-N
  GI50: > 100 µM (inactive)
RXF 393
  GI50: 26.4 µM (inactive)
UACC-62
  GI50: 89.3 µM (inactive)
T47D
  GI50: 25.2 µM (inactive)
OVCAR-4
  GI50: > 100 µM (inactive)
HT-29
  GI50: > 100 µM (inactive)
NCI-H226
  GI50: > 100 µM (inactive)
RPMI-8226
  GI50: > 100 µM (inactive)
SNB-19
  GI50: 58.7 µM (inactive)
CAKI-1
  GI50: > 100 µM (inactive)
MDA-MB-435
  GI50: > 100 µM (inactive)
SR
  GI50: > 100 µM (inactive)
HL-60
  GI50: 54.8 µM (inactive)
SF-268
  GI50: 59.6 µM (inactive)
TK-10
  GI50: > 100 µM (inactive)

## O=C(O)CCC(O)=C1S(=O)(=O)OCCOS1(=O)=O
K562
  GI50: > 100 µM (inactive)
786-0
  GI50: > 100 µM (inactive)
Malme-3M
  GI50: > 100 µM (inactive)
MDA-N
  GI50: > 100 µM (inactive)
RXF 393
  GI50: > 100 µM (inactive)
UACC-62
  GI50: > 100 µM (inactive)
T47D
  GI50: > 100 µM (inactive)
NCI-H460
  GI50: > 100 µM (inactive)
OVCAR-4
  GI50: > 100 µM (inactive)
HT-29
  GI50: > 100 µM (inactive)
NCI-H226
  GI50: > 100 µM (inactive)
RPMI-8226
  GI50: > 100 µM (inactive)
SNB-19
  GI50: > 100 µM (inactive)
CAKI-1
  GI50: > 100 µM (inactive)
MDA-MB-435
  GI50: > 100 µM (inactive)
SR
  GI50: 43.7 µM (inactive)
SF-268
  GI50: > 100 µM (inactive)
TK-10
  GI50: > 100 µM (inactive)

## Cc1ccc2c(c1)Sc1ccc(/N=N/N(C)C)cc1N2C
786-0
  GI50: > 100 µM (inactive)
CCRF-CEM
  GI50: 46 µM (inactive)
Malme-3M
  GI50: > 100 µM (inactive)
MDA-N
  GI50: > 100 µM (inactive)
RXF 393
  GI50: > 100 µM (inactive)
UACC-62
  GI50: > 100 µM (inactive)
T47D
  GI50: 31.7 µM (inactive)
NCI-H460
  GI50: 54.7 µM (inactive)
OVCAR-4
  GI50: > 100 µM (inactive)
HT-29
  GI50: > 100 µM (inactive)
NCI-H226
  GI50: > 100 µM (inactive)
RPMI-8226
  GI50: 59.4 µM (inactive)
SNB-19
  GI50: > 100 µM (inactive)
CAKI-1
  GI50: > 100 µM (inactive)
MDA-MB-435
  GI50: > 100 µM (inactive)
SR
  GI50: 52.8 µM (inactive)
HL-60
  GI50: 64.6 µM (inactive)
SF-268
  GI50: > 100 µM (inactive)
TK-10
  GI50: > 100 µM (inactive)

## COc1ccc(C(=O)/C=C/c2ccc(OCCCCCCCCCCOc3ccc(/C=C/C(=O)c4ccc(OC)c(OC)c4)cc3)cc2)c(OC)c1
K562
  GI50: > 100 µM (inactive)
786-0
  GI50: > 100 µM (inactive)
CCRF-CEM
  GI50: > 100 µM (inactive)
MDA-N
  GI50: > 100 µM (inactive)
RXF 393
  GI50: > 100 µM (inactive)
UACC-62
  GI50: > 100 µM (inactive)
T47D
  GI50: > 100 µM (inactive)
NCI-H460
  GI50: > 100 µM (inactive)
OVCAR-4
  GI50: > 100 µM (inactive)
HT-29
  GI50: > 100 µM (inactive)
NCI-H226
  GI50: > 100 µM (inactive)
RPMI-8226
  GI50: > 100 µM (inactive)
SNB-19
  GI50: > 100 µM (inactive)
CAKI-1
  GI50: > 100 µM (inactive)
MDA-MB-435
  GI50: > 100 µM (inactive)
SR
  GI50: > 100 µM (inactive)
HL-60
  GI50: > 100 µM (inactive)
SF-268
  GI50: > 100 µM (inactive)
TK-10
  GI50: > 100 µM (inactive)

## CCOC(=O)c1sc(N)nc1N1CCCC1
K562
  GI50: > 100 µM (inactive)
786-0
  GI50: > 100 µM (inactive)
CCRF-CEM
  GI50: > 100 µM (inactive)
Malme-3M
  GI50: > 100 µM (inactive)
MDA-N
  GI50: > 100 µM (inactive)
RXF 393
  GI50: 0.942 µM (active)
UACC-62
  GI50: > 100 µM (inactive)
T47D
  GI50: > 100 µM (inactive)
NCI-H460
  GI50: > 100 µM (inactive)
OVCAR-4
  GI50: > 100 µM (inactive)
HT-29
  GI50: > 100 µM (inactive)
NCI-H226
  GI50: > 100 µM (inactive)
RPMI-8226
  GI50: > 100 µM (inactive)
SNB-19
  GI50: > 100 µM (inactive)
CAKI-1
  GI50: > 100 µM (inactive)
MDA-MB-435
  GI50: > 100 µM (inactive)
SR
  GI50: > 100 µM (inactive)
HL-60
  GI50: > 100 µM (inactive)
TK-10
  GI50: > 100 µM (inactive)

## COC(=O)c1sc2ncc3c(c2c1N)CCCCCC3
K562
  GI50: > 100 µM (inactive)
786-0
  GI50: > 100 µM (inactive)
CCRF-CEM
  GI50: > 100 µM (inactive)
Malme-3M
  GI50: > 100 µM (inactive)
MDA-N
  GI50: > 100 µM (inactive)
RXF 393
  GI50: > 100 µM (inactive)
UACC-62
  GI50: > 100 µM (inactive)
T47D
  GI50: > 100 µM (inactive)
NCI-H460
  GI50: > 100 µM (inactive)
OVCAR-4
  GI50: > 100 µM (inactive)
HT-29
  GI50: > 100 µM (inactive)
NCI-H226
  GI50: > 100 µM (inactive)
RPMI-8226
  GI50: > 100 µM (inactive)
SNB-19
  GI50: > 100 µM (inactive)
CAKI-1
  GI50: > 100 µM (inactive)
MDA-MB-435
  GI50: > 100 µM (inactive)
SR
  GI50: > 100 µM (inactive)
SF-268
  GI50: > 100 µM (inactive)
TK-10
  GI50: > 100 µM (inactive)

## CS(=O)(=O)CC(=O)c1ccccc1
K562
  GI50: > 100 µM (inactive)
786-0
  GI50: > 100 µM (inactive)
CCRF-CEM
  GI50: > 100 µM (inactive)
Malme-3M
  GI50: > 100 µM (inactive)
MDA-N
  GI50: > 100 µM (inactive)
RXF 393
  GI50: > 100 µM (inactive)
UACC-62
  GI50: > 100 µM (inactive)
T47D
  GI50: > 100 µM (inactive)
NCI-H460
  GI50: > 100 µM (inactive)
OVCAR-4
  GI50: > 100 µM (inactive)
HT-29
  GI50: > 100 µM (inactive)
NCI-H226
  GI50: > 100 µM (inactive)
RPMI-8226
  GI50: > 100 µM (inactive)
SNB-19
  GI50: > 100 µM (inactive)
MDA-MB-435
  GI50: > 100 µM (inactive)
SR
  GI50: > 100 µM (inactive)
HL-60
  GI50: > 100 µM (inactive)
SF-268
  GI50: > 100 µM (inactive)
TK-10
  GI50: > 100 µM (inactive)
